Assay results taken from a melting point compilation (Tetko et al.; mined from patent text by program, amines drawn as free bases though some values may be those of a salt).

SMILES | melting point [°C]
CCOC(=O)c1cc(C#N)c(C)nc1O | 212 to 213
CCOC(=O)C1(c2ccccc2)CCC=CC1Cl (stereo not drawn) | 137 to 139
Nc1nc(-c2cc(Cl)ccc2Cl)nc(N2CCNCC2)n1 | 163 to 165
Cc1cc(-c2nc3cccnn3c2-c2ccnc(NC(=O)NCCS(C)(=O)=O)c2)ccc1F | 204 to 205
C=CCc1c(-c2ccc(S(C)(=O)=O)cc2)cnn(CC(F)(F)F)c1=O | 192 to 195
O=C1Nc2ccc(F)c(Cl)c2C(=O)N2CCC[C@@H]12 | 217 to 219
Nc1cc(=O)n(-c2ccccc2)[nH]1 | 218 to 219
Cc1cc(C)nc(NC(=N)Nc2ccccc2C(F)(F)F)n1 | 161 to 162
CC(C)c1cccc(C(C)C)c1NC(=O)CC(=O)CC(c1ccccc1)c1ccccc1 | 146 to 148
CCCc1cc(Cl)c2oc(C(=O)O)c(C)c2c1O | 200 to 203
COCc1cc(=O)c(Oc2ccc(F)cc2F)c(-c2ccc(S(C)(=O)=O)cc2)o1 | 124
N=C(NO)c1ccc(-c2cccc(-c3nc4cc(C(=N)NO)ccc4[nH]3)c2)nc1 | 295 to 297
O=C(CCl)[C@H](Cc1ccccc1)N(Cc1ccccc1)Cc1ccccc1 | 45.8 to 46.8
COc1cc(OCCO)c([N+](=O)[O-])cc1[N+](=O)[O-] | 137 to 140
COCCNC(=O)c1ccc(C)c(-n2c(C)cc(OCc3ccccc3CNC(=O)Nc3cc(C(C)(C)C)nn3-c3ccc(O)c(Cl)c3)c(Cl)c2=O)c1 | 179 to 180
CN(C)CCN1CCC(Nc2nc3ccccc3n2Cc2ccc(F)cc2)CC1 | 166
CCCCC(=N)NC(=O)Nc1ccccc1Cl | 132 to 134
Cn1cc(C2=C(c3c4n(c5ccccc35)CCC(N=C=S)C4)C(=O)NC2=O)c2ccccc21 (stereo not drawn) | 285 to 287
COc1ccc(-c2nc(N)ncc2-c2ccc(=O)n(C(C)C)n2)cc1OC | 167
Cn1nc(-c2cc(C=NOCC(=O)O)c(Cl)cc2F)c(Cl)c1C(F)(F)F | 170
O=Cc1nc2cc(F)ccc2s1 | 105 to 107
CC(=C(Cl)Cl)c1ccccc1Nc1ccccc1C | 49 to 51
CCCCNC(=O)C(O[Si](C)(C)C(C)(C)C)c1ccccc1Br (stereo not drawn) | 38 to 39
O=C(O)c1ccc(C2(C(=O)Oc3ccc(C(=O)NO)cc3)CCCCC2)cc1 | 169 to 170

SMILES | melting point [°C]
COC(=O)C1=C(C)NC(CC(=O)N2CCN(C3Cc4ccccc4C3)CC2)=C(C(=O)OC)C1c1c(Cl)cccc1Cl (stereo not drawn) | 190 to 200
Cc1cc(-n2ccnc2)c2cccc(OCc3c(Cl)ccc(S(=O)(=O)N4CCC[C@H]4C(=O)N4CCN(Cc5ccncc5)CC4)c3Cl)c2n1 | 108
O=C(O)c1cc(C(c2ccccc2)(c2ccccc2)c2ccccc2)ccc1O | 234 to 237
CCOC(=O)c1nc2scc(CN=[N+]=[N-])c2c(=O)[nH]1 | 192
C[C@@H]1CN(Cc2ccccc2)C[C@H]1N (relative stereo) | 74 to 80
CC(C)(C)OC(=O)N1CCC(C(=O)N2CCN(c3ccncn3)CC2)CC1 | 159 to 163
CCCC(C(=O)NC)n1cc(C)c(-c2ccccc2)n1 (stereo not drawn) | 84 to 86
NS(=O)(=O)c1ccc(C=Nc2ccc(SSc3ccc(N=Cc4ccc(S(N)(=O)=O)cc4)cc3)cc2)cc1 | 200 to 230
CCOC(=O)C1(Cc2cccnc2)CCCN(C(=O)c2ccc(Nc3nccc(Nc4ccc(F)cc4)n3)cc2)C1 (stereo not drawn) | 119
O=C1c2ccccc2C(=O)N1CCCCN1CCN(C(c2ccccc2)c2ccccc2)CC1 | 125 to 129
CCOC(=O)N1CCCC2(OCCO2)C1Cc1c[nH]c2ccccc12 (stereo not drawn) | 122 to 125
CC1=C(C(=O)OC(C)(C)C)C(c2ccccc2Br)C(C(=O)OC(C)(C)C)=C(C)N1 | 162 to 164
COc1ccc(S(=O)(=O)N2CCc3cccc(-c4ccc(CN(C)C)cc4)c32)cc1 | 165 to 166
CC(=O)c1ccc2c(c1)C(c1ccccn1)CC(C)(C)O2 (stereo not drawn) | 102 to 105
COc1ccc(C[C@@H](COC(C)=O)NC(=O)c2ccnc(-n3nc(-c4cccnc4)c4ccccc4c3=O)c2)cc1OC | 85 to 87
O=C=Nc1ccc(OCc2nc(Cl)ccc2Cl)cc1 | 61.5 to 62.5
CNS(=O)(=O)c1ccc(C)c(CCCOCCn2cnc3c(N)nc4ccccc4c32)c1 | 207 to 209
CCCCn1c(=O)c(NC(=O)Nc2c(C(C)C)cc(N)cc2C(C)C)c(-c2cccc(OCCCO)c2)c2cccnc21 | 153 to 155
CC12CCC(=O)C=C1CCC(=Cc1ccccc1)C2=O (stereo not drawn) | 88
O=C1Nc2ccccc2N(C(=O)N2CCCC(CCCN3CCCC3)C2)c2ncccc21 (stereo not drawn) | 174 to 176
CC(C)CCNC(=O)c1ccccc1-c1ccccc1CNC(=O)OCc1ccccc1 | 112
CCN(C(=O)c1ccc(Cn2cnc3ccccc32)cc1)C1CCCCC1 | 118 to 119
Cc1ccc(C(=O)N[C@@H](COC(C)(C)C)NC(=S)Nc2cccc([N+](=O)[O-])c2)cc1 | 169 to 171
COc1ccccc1OCC(O)CN1CCC(N2CCNC2=O)CC1 (stereo not drawn) | 138

SMILES | melting point [°C]
COc1ccc2c(c1)C=C(CN1CCC3(CC1)C(=O)NCN3c1ccccc1)CC2 | 184 to 186
CCCN(CCC)C(=O)c1cc(C(=O)N[C@@H](Cc2cc(F)cc(F)c2)[C@H](O)CNCc2cc(CN(C)C)ccn2)cc(-c2ncco2)c1 | 65 to 68
CCCCOC(C=Cc1ccc(C(=O)O)cc1)c1ccc2c(c1)C(C)(C)CCC2(C)C (racemic) | 78 to 80
O=Cc1cc(Cl)cc2c1OCCC2 | 83 to 86
COc1cc2ncc(C#N)c(Nc3c(C)cccc3O)c2cc1OC | 245 to 247
C=C(CC)c1cn(-c2c(Cl)cc(C(F)(F)F)cc2Cl)nc1C#N | 104 to 105
OC(Cc1ccccc1)c1nc(-c2ccncc2)cs1 (stereo not drawn) | 120 to 122
COc1ccc(C(=O)Nc2ccc3ccc(Oc4ccccc4)nc3n2)cc1 | 160
Cn1cc(CC(=O)O)c2cc(Br)ccc21 | 192 to 194
O=[N+]([O-])c1ccc(Oc2ccccc2Oc2ccc([N+](=O)[O-])cc2)cc1 | 134 to 135
CCCCCCc1c(C(=O)O)sc2ccsc12 | 111 to 112
Cc1nc(-c2nc(-c3ccc(F)cc3)c(-c3ccc(S(C)(=O)=O)cc3)s2)cs1 | 184 to 186
CC(CS)C(=O)NC(CCCNC(=N)N)C(=O)O (stereo not drawn) | 100
Cn1cc(-c2cc(-c3cnc4[nH]ccc4c3)ccn2)n(-c2ccc(C(C)(C)CN)cc2)c1=O | 91
C=Cn1ccnc1C(O)(c1ccc(Cl)cc1)c1ccc(Cl)cc1 | 174
CC(C)(C)c1cccc(S(=O)(=O)Nc2cc(C(F)(F)F)ccc2I)c1 | 134
N#CC(c1ccc([N+](=O)[O-])cc1)c1ccccn1 (racemic) | 97 to 99
CCOC(=O)c1ccc(C(=O)Nc2ccc3c(c2)N(C)C(=O)C(C)(C)C(=O)N3C)cc1 | > 270
CC(=O)OCC1OC(n2c(Cl)nc3cc(F)c(F)cc32)C(OC(C)=O)C1OC(C)=O (stereo not drawn) | 90 to 91
CCn1c(C(=O)c2cc(C)cc(C=CC#N)c2)c(C(C)C)c(=O)[nH]c1=O | 174 to 176
Cc1cccc2c(-c3ccccc3)c([N+](=O)[O-])oc12 | 122 to 127
Cc1ccc(SN(CC(=O)OCc2ccccc2)CP(=O)(Oc2ccccc2)Oc2ccccc2)cc1 | 108 to 111
O=C(Nc1cc2ccccc2cn1)c1ncccc1NCc1ccncc1 | 168
Cc1c(Cl)cccc1S(=O)(=O)Nc1ccc2c(c1)nc(C)n2-c1ccccc1 | 254 to 256

SMILES | melting point [°C]
Nc1ccc(-c2noc(-c3cnn4c(C(F)(F)F)cc(-c5ccc(F)c(F)c5)nc34)n2)cn1 | 262
N#Cc1ccc(Oc2ccccc2Oc2ccc(C#N)cc2)cc1 | 112
O=C(NC1N=C(c2ccccc2F)c2ccccc2N(C(=O)c2ccc(Cl)cc2)C1=O)c1ccc(Cl)cc1 (racemic) | 190 to 191
C#Cc1ccc(C2(C3CCCCCCC3)CCCCCCC2)cc1 | 167
Cc1ccc(C(=O)c2ccccc2F)cc1 | 73 to 74
N#CCCNC(=O)c1cccc(-c2ccc3c(c2)N(Cc2ccc(Cl)cc2Cl)CCCC3)c1 | 139 to 140
CCC(=O)c1cc(Cl)c(OC)cc1OC | 115
CCCCc1nn(-c2ccccc2C(F)(F)F)c(=O)n1Cc1ccc(-c2ccccc2S(N)(=O)=O)cc1 | 74 to 76
Cn1c(=O)c(NC(=O)Nc2ccc(F)cc2F)c(-c2ccccc2Cl)c2cccnc21 | 225 to 226
CCNc1nc(C)c(C(=O)OCC)c(NCCCN(C)C)c1[N+](=O)[O-] | < 20
CC(C)N(C)c1nccc(Oc2ccc(NC(=O)c3cc(F)cc(N4CCCCC4)c3)c3ccccc23)n1 | 102 to 104
COCCNS(=O)(=O)c1cccc(Nc2nccc(-c3sc(N)nc3C)n2)c1 | 179 to 180
CC(C)c1c(C(=O)Cl)n(-c2ccc(F)cc2)c(=O)c2ccccc12 | 113 to 115
O=C(c1ccccc1F)N1C(=O)c2ccccc2S1(=O)=O | 148 to 151
O=C(CCC1CCCC1)Nc1ccc2ncn3c(=O)c(C(=O)O)cnc3c2c1 | 279 to 283
Cc1c(Cl)cccc1S(=O)(=O)Nc1ccc2nc(C)n(C)c2c1 | 265 to 266
COc1ccc(S(N)(=O)=O)cc1C(=O)C(C)Br (stereo not drawn) | 108 to 110
CCOC(=O)COc1ccc(Cn2c(-c3ccc(C(F)(F)F)cc3)c(C)c3cc(OCc4ccccc4)ccc32)cc1 | 221
O=C(CNC(=O)c1cc([N+](=O)[O-])c([N+](=O)[O-])cc1Cl)OCc1ccccc1 | 122 to 124
CC(C)(C)OC(=O)CN(C(=O)CN1C(=O)c2ccccc2C1=O)c1ccccc1C(=O)N1CCCc2ccccc21 | 150
CC1COC(=O)N1c1cc(-c2ccnc(Nc3cccc(Cl)c3)n2)ccn1 (stereo not drawn) | 177 to 178
